Test results published in patent US20200268701A1, “COMPOSITIONS AND METHODS FOR PRODUCING ELEVATED AND SUSTAINED KETOSIS” (University of South Florida, priority 2013, published 2020).
Structures can show the parent of a compound that is named as a salt. Each block holds one compound with its values, some of them ahead of it.

Assays:
[1] = human, in vivo, po
Experimental: All procedures were done in accordance with the University of South Florida Institutional Review Board (IRB) guidelines. BHB salts and MCT oil were given to human subjects as a ketogenic food supplement and blood measurements of BHB and/or glucose were taken at predetermined time points.
To determine the time course of ketosis, the subjects were orally given the test substances of a BHB salt solution (450 mL; 4%, approximately 18 g), an MCT oil (30 mL, approximately 30 g), or a combination of the a BHB salt solution and an MCT oil. Blood concentrations of glucose and BHB were determined utilizing a commercially available glucose/ketone monitoring system (Precision Xtra® blood glucose and ketone meter) at defined time points (0, 15, 30, 60, 120, 240 and 480 minutes following ingestion of the test substances).
The subject was administered a BHB salt solution containing 4% Na^+/K^+ BHB salts in solution, an MCT oil, or a combination of the 4% Na^+/K^+ BHB salts and the MCT oil. At 15, 30, 60, 120, 240 and 480 minutes after administration, blood was drawn. The subject returned on days 2 and 3 for additional supplements, with blood taken as on day 1. Levels of BHB in the blood were determined as described above.

[2] = Blood βHB levels of a fasted 70 kg subject after oral administration; assay type: in vivo, human; design: unit: mM; conditions: for Blood βHB levels Mean: 70 kg male, mean of 3 days; for Blood βHB levels Day 1 / Blood βHB levels Day 2 / Blood βHB levels Day 3: 70 kg person
Experimental: (§1) To determine the time course of ketosis, the subjects were orally given the test substances of a BHB salt solution (450 mL; 4%, approximately 18 g), an MCT oil (30 mL, approximately 30 g), or a combination of the a BHB salt solution and an MCT oil. Blood concentrations of glucose and BHB were determined utilizing a commercially available glucose/ketone monitoring system (Precision Xtra® blood glucose and ketone meter) at defined time points (0, 15, 30, 60, 120, 240 and 480 minutes following ingestion of the test substances). Subject (70 kg) was instructed to fast for three days, and was given a single daily oral administration of either ßHB salts (4% solution containing 11 grams sodium ßHB and 7.1 grams potassium ßHB), MCT oil or ßHB salts+MCT oil at 15, 30, 60, 120, 240 and 480 minutes on 3 consecutive days. At 15, 30, 60, 120, 240 and 480 minutes after administration, blood was drawn. The subject returned on days 2 and 3 for additional supplements, with blood taken as on day 1, as in Example 1.

[3] = Blood glucose levels of a fasted 70 kg subject after oral administration; assay type: in vivo, human; conditions: for Blood glucose levels Mean: 70 kg male, mean of 3 days; for Blood glucose levels Day 1 / Blood glucose levels Day 2 / Blood glucose levels Day 3: 70 kg person
Experimental: as §1, with “1. […] Blood glucose levels were determined as described above.” for “1.”

[4] = Blood glucose levels in rats after ketone supplementation; assay type: in vivo, Sprague-Dawley rats
From the text: (§2) Subject rats (n=74), 275-325 grams, were randomly assigned to a control group (no supplementation) or to one of three ketone precursor groups: medium chain triglyceride (MCT) oil (MO), mineral (Na^+/K+) salt of β-hydroxybutyrate (βHB) (SO), or SO+MO 1:1 combination (SM). The ketone mineral salt was developed and synthesized by Dr. Patrick Arnold from Prototype Nutrition. Pure pharmaceutical grade MCT oil was purchased from Now Foods (Bloomingdale, Ill.). SM was mixed at a 1:1 ratio.
(§3) Rats were supplemented with medium chain triglyceride (MCT) oil (MO), or a mineral (Na+/K+) salt of β-hydroxybutyrate (βHB) (SO), or SO+MO 1:1 mixture (SM) and force fed a daily at a dose of 5 g/kg body weight on days 1-14, followed by a 10 g/kg dose on days 15-28 rats Supplementation was given between 10 am and […] daily to eliminate variance based on regular eating patterns. Diets were not restricted for this study.
Once a week, animals were fasted for 4 hours prior to intragastric gavage of the appropriate ketone supplement. The four hour food restriction was used to eliminate normal variance in blood glucose and ketone levels due to food consumption. Whole blood samples (10 μL) were acquired from the saphenous vein of the subjects for analysis of glucose and βHB utilizing the commercially available glucose and ketone monitoring system Precision Xtra™ (Abbott Laboratories, Abbott Park, Ill.) at time intervals of 0, 0.5, 1, 4, 8, and 12 hours after ketone precursor supplements were administered, or until βHB returned to baseline. On Day 0 (Week 0) and Day 28 (Week 4), whole blood samples (10 μL) were acquired for analysis of total cholesterol, HDL, and triglycerides for a lipid panel utilizing the commercially available home cholesterol analyzer Cardio Chek™ (Polymer Technology Systems, Inc., Indianapolis, Ind.) at time 0. Animals were weighed once per week to maintain accurate dosage using the Mittler Toledo SB 16001 scales.

[5] = design: species or system Sprague-Dawley rats; conditions: rat, in vivo
From the text: as §2, §3
Once a week, animals were fasted for 4 hours prior to intragastric gavage of the appropriate ketone supplement. The four hour food restriction was used to eliminate normal variance in blood glucose and ketone levels due to food consumption. […]

[6] = Change of body weight in rats during 28 days of ketone supplementation; assay type: in vivo, Sprague-Dawley rats; conditions: daily for 28 days
Experimental: Diets were not restricted for this study. Once a week, animals were fasted for 4 hours prior to intragastric gavage of the appropriate ketone supplement. The four hour food restriction was used to eliminate normal variance in blood glucose and ketone levels due to food consumption. […] Animals were weighed once per week to maintain accurate dosage using the […] Toledo SB 16001 scales. Rats were administered SO, MO, or SM daily for 28 days as described above. Each week the animals were weighed. […] The control animals continued to gain weight throughout the month-long study. In comparison, the ketone supplement treatment groups all gained less weight. […] A key finding of this study is that the SM group was able to limit weight gain in an unexpected way as the amounts of BHB and MCT when combined were much lower than the amounts of those ingredients used in the SO and MO treatment groups. This effect on body weight gain is likely due to appetite suppression caused by the supplements, rather than a reduced intake of the supplement itself, as force feeding controlled for dosing.

- Blood βHB levels Mean ([2]; time 0 minutes): 0.87
- Blood βHB levels Mean ([2]; time 30 minutes): 1.73
- Blood βHB levels Mean ([2]; time 60 minutes): 2.77
- Blood βHB levels Mean ([2]; time 120 minutes): 1.73
- Blood βHB levels Mean ([2]; time 240 minutes): 1.53
- Blood βHB levels Mean ([2]; time 480 minutes): 1.53
- Blood βHB levels Day 1 ([2]; time 0 minutes): 0.2
- Blood βHB levels Day 2 ([2]; time 0 minutes): 0.6
- Blood βHB levels Day 3 ([2]; time 0 minutes): 1.8
- Blood βHB levels Day 1 ([2]; time 30 minutes): 0.7
- Blood βHB levels Day 2 ([2]; time 30 minutes): 1.8
- Blood βHB levels Day 3 ([2]; time 30 minutes): 2.7
- Blood βHB levels Day 1 ([2]; time 60 minutes): 1.1
- Blood βHB levels Day 2 ([2]; time 60 minutes): 2.4
- Blood βHB levels Day 3 ([2]; time 60 minutes): 4.8
- Blood βHB levels Day 1 ([2]; time 120 minutes): 0.3
- Blood βHB levels Day 2 ([2]; time 120 minutes): 1.6
- Blood βHB levels Day 3 ([2]; time 120 minutes): 3.3
- Blood βHB levels Day 1 ([2]; time 240 minutes): 0.4
- Blood βHB levels Day 2 ([2]; time 240 minutes): 1.2
- Blood βHB levels Day 3 ([2]; time 240 minutes): 3
- Blood βHB levels Day 1 ([2]; time 480 minutes): 0.6
- Blood βHB levels Day 2 ([2]; time 480 minutes): 1.6
- Blood βHB levels Day 3 ([2]; time 480 minutes): 2.4
- Triglyceride levels at week 4 compared with week 0 [5]: mildly elevated
Compound: CC(O)CC(=O)O (stereo not drawn) [BHB salt (450 mL), β-hydroxybutyrate]
- Elevation in BHB levels (in words) [1]: higher elevation in BHB levels than MCT oil alone
- Blood glucose levels Mean ([3]; time 0 minutes): 90.00
- Blood glucose levels Mean ([3]; time 30 minutes): 87.00
- Blood glucose levels Mean ([3]; time 60 minutes): 81.00
- Blood glucose levels Mean ([3]; time 120 minutes): 77.33
- Blood glucose levels Mean ([3]; time 240 minutes): 77.33
- Blood glucose levels Mean ([3]; time 480 minutes): 74.67
- Blood glucose levels Day 1 ([3]; time 0 minutes): 100
- Blood glucose levels Day 2 ([3]; time 0 minutes): 90
- Blood glucose levels Day 3 ([3]; time 0 minutes): 80
- Blood glucose levels Day 1 ([3]; time 30 minutes): 95
- Blood glucose levels Day 2 ([3]; time 30 minutes): 95
- Blood glucose levels Day 3 ([3]; time 30 minutes): 71
- Blood glucose levels Day 1 ([3]; time 60 minutes): 85
- Blood glucose levels Day 2 ([3]; time 60 minutes): 90
- Blood glucose levels Day 3 ([3]; time 60 minutes): 68
- Blood glucose levels Day 1 ([3]; time 120 minutes): 82
- Blood glucose levels Day 2 ([3]; time 120 minutes): 85
- Blood glucose levels Day 3 ([3]; time 120 minutes): 65
- Blood glucose levels Day 1 ([3]; time 240 minutes): 80
- Blood glucose levels Day 2 ([3]; time 240 minutes): 84
- Blood glucose levels Day 3 ([3]; time 240 minutes): 68
- Blood glucose levels Day 1 ([3]; time 480 minutes): 76
- Blood glucose levels Day 2 ([3]; time 480 minutes): 80
- Blood glucose levels Day 3 ([3]; time 480 minutes): 68
- Blood glucose versus control (in words) ([4]; 5 g/kg, week 0): did not show any significant difference compared to control
- Blood glucose versus control (in words) ([4]; 5 g/kg, week 1): began reducing glucose by 8 hours
- Blood glucose versus control (in words) ([4]; 10 g/kg, week 2 onward): reduced glucose levels at 30 minutes through 8 hours
- Body weight gain compared to controls (in words) [6]: gained significantly less weight compared to controls

- Elevation in BHB levels (in words) [1]: little elevation in BHB levels
- Time of peak plasma BHB level after administration [1]: 60 min
- Triglyceride levels at week 4 compared with week 0 [5]: little change
Compound: medium chain triglyceride (MCT) oil [MCT (30 mL)]
